Results as given in PubChem BioAssay (NCI).
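96-well plates; 48 h exposure; 5 concentrations. Endpoints by linear interpolation between flanking doses. Not reached: highest tested concentration assigned. TGI is the concentration that stops growth completely.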

What was measured:
Assay in all cases: growth of human tumour cells (NCI), 48 h
M14 melanoma = system: M14 melanoma
U251 CNS = system: U251 CNS
DMS 114 small cell lung = system: DMS 114 small cell lung
SW-620 colon = system: SW-620 colon
SR leukemia = system: SR leukemia
SK-MEL-5 melanoma = system: SK-MEL-5 melanoma
TK-10 renal = system: TK-10 renal
OVCAR-8 ovarian = system: OVCAR-8 ovarian
KM12 colon = system: KM12 colon
HOP-92 NSCLC = system: HOP-92 NSCLC
KM20L2 colon = system: KM20L2 colon
EKVX NSCLC = system: EKVX NSCLC
UO-31 renal = system: UO-31 renal
A549 NSCLC = system: A549 NSCLC
DLD-1 colon = system: DLD-1 colon
SN12C renal = system: SN12C renal
A498 renal = system: A498 renal
HOP-18 NSCLC = system: HOP-18 NSCLC
SNB-75 CNS = system: SNB-75 CNS
RPMI-8226 leukemia = system: RPMI-8226 leukemia
OVCAR-3 ovarian = system: OVCAR-3 ovarian
HT29 colon = system: HT29 colon
DMS 273 small cell lung = system: DMS 273 small cell lung
K-562 leukemia = system: K-562 leukemia
SNB-78 CNS = system: SNB-78 CNS
LXFL 529 NSCLC = system: LXFL 529 NSCLC
NCI-H460 lung = system: NCI-H460 lung
MALME-3M melanoma = system: MALME-3M melanoma
OVCAR-5 ovarian = system: OVCAR-5 ovarian
HCC-2998 colon = system: HCC-2998 colon
NCI-H226 lung = system: NCI-H226 lung
UACC-62 melanoma = system: UACC-62 melanoma
NCI-H23 lung = system: NCI-H23 lung
UACC-257 melanoma = system: UACC-257 melanoma
SF-268 CNS = system: SF-268 CNS
CAKI-1 renal = system: CAKI-1 renal
SK-MEL-28 melanoma = system: SK-MEL-28 melanoma
OVCAR-4 ovarian = system: OVCAR-4 ovarian
HCT-116 colon = system: HCT-116 colon
SNB-19 CNS = system: SNB-19 CNS
HOP-62 NSCLC = system: HOP-62 NSCLC
SK-MEL-2 melanoma = system: SK-MEL-2 melanoma
LOX IMVI melanoma = system: LOX IMVI melanoma
HCT-15 colon = system: HCT-15 colon
ACHN renal = system: ACHN renal
786-0 renal = system: 786-0 renal
RXF 393 renal = system: RXF 393 renal
SK-OV-3 ovarian = system: SK-OV-3 ovarian
NCI-H522 lung = system: NCI-H522 lung
SF-295 CNS = system: SF-295 CNS
CCRF-CEM leukemia = system: CCRF-CEM leukemia
MOLT-4 leukemia = system: MOLT-4 leukemia
IGROV1 ovarian = system: IGROV1 ovarian
RXF-631 renal = system: RXF-631 renal
COLO 205 colon = system: COLO 205 colon

With `CCCCCCCCCCCCCCCCCC(=O)OCC(CN(C)CCN(C)C)OC(=O)CCCCCCCCCCCCCCCCC` (stereo not given) the TGI (M14 melanoma) was greater than 100 µM, the TGI (U251 CNS) was greater than 100 µM and the TGI (DMS 114 small cell lung) was greater than 100 µM. For the same molecule, the TGI (SW-620 colon) was greater than 100 µM, the TGI (SR leukemia) was 64.2 µM and the TGI (SK-MEL-5 melanoma) was greater than 100 µM. The TGI (TK-10 renal) was greater than 100 µM, the TGI (OVCAR-8 ovarian) was greater than 100 µM and the TGI (KM12 colon) was greater than 100 µM. The TGI (HOP-92 NSCLC) was greater than 100 µM, the TGI (KM20L2 colon) was greater than 100 µM and the TGI (EKVX NSCLC) was greater than 100 µM. The TGI (UO-31 renal) was greater than 100 µM, the TGI (A549 NSCLC) was greater than 100 µM and the TGI (DLD-1 colon) was greater than 100 µM. It also gave a TGI (SN12C renal) greater than 100 µM, a TGI (A498 renal) greater than 100 µM and a TGI (HOP-18 NSCLC) of 89 µM. For the same molecule, the TGI (SNB-75 CNS) was greater than 100 µM, the TGI (RPMI-8226 leukemia) was greater than 100 µM and the TGI (OVCAR-3 ovarian) was greater than 100 µM. The TGI (HT29 colon) was greater than 100 µM, the TGI (DMS 273 small cell lung) was greater than 100 µM and the TGI (K-562 leukemia) was greater than 100 µM. The TGI (SNB-78 CNS) was greater than 100 µM, the TGI (LXFL 529 NSCLC) was greater than 100 µM and the TGI (NCI-H460 lung) was greater than 100 µM. It also gave a TGI (MALME-3M melanoma) greater than 100 µM, a TGI (OVCAR-5 ovarian) greater than 100 µM and a TGI (HCC-2998 colon) greater than 100 µM. It also gave a TGI (NCI-H226 lung) greater than 100 µM, a TGI (UACC-62 melanoma) greater than 100 µM and a TGI (NCI-H23 lung) greater than 100 µM. It also gave a TGI (UACC-257 melanoma) greater than 100 µM, a TGI (SF-268 CNS) greater than 100 µM and a TGI (CAKI-1 renal) greater than 100 µM. It also gave a TGI (SK-MEL-28 melanoma) greater than 100 µM, a TGI (OVCAR-4 ovarian) greater than 100 µM and a TGI (HCT-116 colon) greater than 100 µM. The TGI (SNB-19 CNS) was greater than 100 µM, the TGI (HOP-62 NSCLC) was greater than 100 µM and the TGI (SK-MEL-2 melanoma) was greater than 100 µM. The TGI (LOX IMVI melanoma) was greater than 100 µM, the TGI (HCT-15 colon) was greater than 100 µM and the TGI (ACHN renal) was greater than 100 µM. It also gave a TGI (786-0 renal) greater than 100 µM, a TGI (RXF 393 renal) greater than 100 µM and a TGI (SK-OV-3 ovarian) greater than 100 µM. The TGI (NCI-H522 lung) was greater than 100 µM, the TGI (SF-295 CNS) was greater than 100 µM and the TGI (CCRF-CEM leukemia) was greater than 100 µM. It also gave a TGI (MOLT-4 leukemia) of 83.7 µM, a TGI (IGROV1 ovarian) greater than 100 µM and a TGI (RXF-631 renal) greater than 100 µM. The TGI (COLO 205 colon) was greater than 100 µM.
